Measured values taken from patent US7875587B2, “Peptide analogues of GIP for treatment of diabetes, insulin resistance and obesity” (UUTECH Limited, priority 2004, dated 2011).
Starred links: 1 amine or outer side, 2 acyl side, 3 side chain; linkers in the order of their positions; H or OH if unused. Non-standard residues stand in square brackets, D forms with d. No end group written: not given here. X1 = O=C([C@H](Cc1ccc(O)cc1)N(C[C@H](O)[C@@H](O)[C@H](O)[C@H](O)CO)[*:1])[*:2]; Hyp = O=C(O)[C@@H]1C[C@@H](O)CN1

How the values were obtained:
[1] = tested on: BRIN-BD11 cells; experiment: GIP-stimulated insulin release from BRIN-BD11 cells (antagonism); format: cell-based; conditions: 5.6 mM glucose, native GIP 10^-7 M
Description: Tissue culture. […] Cells were maintained in sterile tissue culture flasks (Corning Glass Works, Sunderland, UK) at 37° C. in an atmosphere of 5% CO2 and 95% air using an LEEC incubator (Laboratory Technical Engineering, Nottingham, UK). Acute studies of insulin release. Insulin release from BRIN-BD11 cells was determined using cell monolayers ([…]. et al., 1996, Diabetes 45:1132-1140). Cells were harvested with the aid of trypsin/EDTA (Gibco), seeded into 24-multiwell plates (Nunc, Roskilde, Denmark) at a density of 1.0×10^5 cells per well, and allowed to attach overnight at 37° C.

[2] = tested on: Wistar rats; experiment: In vivo plasma glucose and insulin after i.p. glucose with peptide in Wistar rats; set-up: species or system rat
Description: In vivo biological activity of GIP and Tyr^1-glucitol GIP. Effects of GIP and Tyr^1-glucitol GIP on plasma glucose and insulin concentrations were examined using 10-12 week old male Wistar rats. The animals were housed individually in an air conditioned room and 22±2° C. with a 12 hour light/12 hour dark cycle. Drinking water and a standard rodent maintenance diet (Trouw Nutrition, Belfast, Northern Ireland) were supplied ad libitum. Food was withdrawn for an 18 hour period prior to intraperitoneal injection of glucose alone (18 mmol/kq body weight) or in combination with either GIP or Tyr^1-glucitol GIP (10 nmol/kg). Test solutions were administered in a final volume of 8 ml/kg body weight. Blood samples were collected at 0, 15, 30 and 60 minutes from the cut tip of the tail of conscious rats into chilled fluoride/heparin microcentrifuge tubes (Sarstedt, Numbrecht, Germany). Samples were centrifuged using a Beckman microcentrifuge for about 30 seconds at 13,000 g. Plasma samples were aliquoted and stored at −20° C. prior to glucose and insulin determinations. All animal studies were done in accordance with the Animals (Scientific Procedures) Act 1986.
Analyses. Plasma glucose was assayed by an automated glucose oxidase procedure using a Beckman Glucose Analyzer II [33]. Plasma insulin was determined by dextran charcoal radioimmunoassay as described previously. Incremental areas under plasma glucose and insulin area under the curve (AUC) were calculated using a computer program (CAREA) employing the trapezoidal rule with baseline subtraction. Results are expressed as mean±SEM and values were compared using the Student's unpaired t-test.

[3] = target: T1, DPP IV (Sus scrofa, UniProt P22411); experiment: Degradation of GIP and analogues by DPP IV (HPLC); format: in vitro ADME
T1 construct: purchased Sigma (Poole, Dorset, UK)
T1 sequence (P22411 whole entry): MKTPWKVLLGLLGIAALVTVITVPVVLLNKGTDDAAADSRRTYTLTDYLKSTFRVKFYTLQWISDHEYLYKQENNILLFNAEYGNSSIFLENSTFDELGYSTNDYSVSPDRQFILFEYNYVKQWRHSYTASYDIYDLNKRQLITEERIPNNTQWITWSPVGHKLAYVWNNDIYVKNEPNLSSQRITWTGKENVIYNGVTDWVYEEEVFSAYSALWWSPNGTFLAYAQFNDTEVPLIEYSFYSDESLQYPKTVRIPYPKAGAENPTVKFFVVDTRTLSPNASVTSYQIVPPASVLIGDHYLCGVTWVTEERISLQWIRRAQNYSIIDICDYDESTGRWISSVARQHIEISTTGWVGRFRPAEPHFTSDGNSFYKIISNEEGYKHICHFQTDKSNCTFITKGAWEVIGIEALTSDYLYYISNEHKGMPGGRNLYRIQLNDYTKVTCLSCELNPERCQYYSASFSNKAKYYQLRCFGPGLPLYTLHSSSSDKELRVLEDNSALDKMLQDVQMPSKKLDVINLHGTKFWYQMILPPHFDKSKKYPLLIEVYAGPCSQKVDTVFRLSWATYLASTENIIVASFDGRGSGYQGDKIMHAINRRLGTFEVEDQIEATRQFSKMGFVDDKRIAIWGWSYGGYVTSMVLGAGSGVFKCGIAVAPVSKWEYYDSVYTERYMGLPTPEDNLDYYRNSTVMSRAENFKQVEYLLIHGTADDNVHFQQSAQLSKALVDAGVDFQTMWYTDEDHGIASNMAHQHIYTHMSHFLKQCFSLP
Description: Degradation of GIP and Tyr^1-glucitol GIP by DPP IV. HPLC-purified GIP or Tyr^1-glucitol GIP were incubated at 37° C. with DPP-IV (5 mU) for various time periods in a reaction mixture made up to 500 μl with 50 mmol/l triethanolamine-HCl, pH 7.8 (final peptide concentration 1 mmol/l). Enzymatic reactions were terminated after 0, 2, 4 and 12 hours by addition of 5 μl of 10% (v/v) TFA/water. Samples were made up to a final volume of 1.0 ml with 0.12% (v/v) TFA and stored at −20° C. prior to HPLC analysis.
(§1) HPLC analysis of degraded GIP and Tyr^1-glucitol GIP. […] Using 0.1% (v/v) TFA in 70% acetonitrile/H20, the concentration of acetonitrile in the eluting solvent was raised from 0% to 31.5% over 15 min, to 38.5% over 30 minutes and from 38.5% to 70% over 5 minutes, using linear gradients. The absorbance was monitored at 206 nm and peak areas evaluated using a model 2221 LKB integrator. Samples recovered manually were concentrated using a Speed-Vac concentrator.
(§2) Electrospray ionization-mass spectrometry (ESI-MS) was carried out as described in Example 2. Degradation of GIP and novel GIP analogues by DPP IV and human plasma was carried out as described in Example 2.

[4] = Degradation of GIP and analogues by human plasma (HPLC); format: in vitro ADME
Description: Degradation of GIP and Tyr^1-glucitol GIP by human plasma. […] […] The reactions were terminated by addition of 5 μl of TFA and the final volume adjusted to 1.0 ml using 0.1% v/v TFA/water. Samples were centrifuged (13,000 g, 5 minutes) and the supernatant applied to a C-18 Sep-Pak cartridge (Millipore-Waters) which was previously primed and washed with 0.1% (v/v) TFA/water. […] The volume was adjusted to 1.0 ml with 0.12% (v/v) TFA/water prior to HPLC purification.
as §1, §2

[5] = tested on: BRIN-BD11 cells; experiment: Acute tests for insulin secretion from BRIN-BD11 cells; format: cell-based
Description: Culture of insulin secreting cells. BRIN-BD11 cells were cultured in sterile tissue culture flasks (Corning, Glass Works, UK) using RPMI-1640 tissue culture medium containing 10% (v/v) foetal calf serum, 1% (v/v) antibiotics (100 U/ml penicillin, 0.1 mg/ml streptomycin) and 11.1 mM glucose. The cells were maintained at 37° C. in an atmosphere of 5% CO2 and 95% air using a LEEC incubator (Laboratory Technical Engineering, Nottingham, UK).
Acute tests for insulin secretion. Before experimentation, the cells were harvested from the surface of the tissue culture flasks with the aid of trypsin/EDTA (Gibco), seeded into 24-multiwell plates (Nunc, Roskilde, Denmark) at a density of 1.5×10^5 cells per well, and allowed to attach overnight at 37° C. Acute tests for insulin release were preceded by 40 minutes pre-incubation at 37° C. in 1.0 ml Krebs Ringer bicarbonate buffer (115 mM NaCl, 4.7 mM KCl, 1.28 mM CaCl2, 1.2 mM KH2PO4, 1.2 mM MgSO4, 10 mM NaHCO3, 5 g/l bovine serum albumin, pH 7.4) supplemented with 1.1 mM glucose. Test incubations were performed (n=12) at two glucose concentrations (5.6 mM and 16.7 mM) with a range of concentrations (10^−13 to 10^−8 M) of GIP or GIP analogues. After 20 minutes incubation, the buffer was removed from each well and aliquots (200 μl) were used for measurement of insulin by radioimmunoassay.

[6] = 10 nmol/kg i.p. with glucose 18 mmol/kg, rats

## (Lys^3)GIP: Glu^3-substituted form of GIP (lysine at position 3) (YAKGTFISDYSIAMDKIHQQDFVNWLLAQKGKKNDWKHNITQ)
[1]
  inhibition of GIP-stimulated insulin secretion: inhibited in a dose-dependent fashion

## (Phe^3)GIP: Glu^3-substituted form of GIP (phenylalanine at position 3) (YAFGTFISDYSIAMDKIHQQDFVNWLLAQKGKKNDWKHNITQ)
[1]
  inhibition of GIP-stimulated insulin secretion: inhibited in a dose-dependent fashion

## GIP(3-42): N-terminally truncated GIP, main DPP IV metabolite after removal of Tyr^1-Ala^2 (EGTFISDYSIAMDKIHQQDFVNWLLAQKGKKNDWKHNITQ; listed as Homo sapiens)
[1]
  inhibition of GIP-stimulated insulin secretion: inhibited in a dose-dependent fashion

## (Hyp^3)GIP: Glu^3-substituted form of GIP (hydroxyproline at position 3) (YA[Hyp]GTFISDYSIAMDKIHQQDFVNWLLAQKGKKNDWKHNITQ)
[1]
  inhibition of GIP-stimulated insulin secretion: inhibited in a dose-dependent fashion

## [X1]AEGTFISDYSIAMDKIHQQDFVNWLLAQKGKKNDWKHNITQ [Glycated GIP]
[2]; 10 nmol/kg i.p. with glucose
  overall insulin response (AUC) compared with glucose alone: significantly greater
  plasma insulin response (AUC) compared with GIP: significantly greater than after GIP
[2]; [6]
  increase of antihyperglycemic action relative to GIP, estimated from AUC: 38%
  increase of insulin-releasing action relative to GIP, estimated from AUC: 62%
[2]; 10 nmol/kg i.p. with glucose, vs GIP
  plasma glucose AUC compared to GIP: significantly lower
[2]; 10 nmol/kg i.p. with glucose, vs glucose alone, 0-60 min
  plasma glucose concentrations and AUC compared with control group: significantly lower
[3]; Example 2, 2-12 hours incubation
  stability on incubation with DPP IV: remained almost completely intact
[3]; Example 3, summary of Table 1
  resistance to in vitro degradation with DPP IV relative to native GIP: more resistant than native GIP
[3]; incubation with DPP IV, 0 h
  % Intact peptide remaining after time (h): 100%
[3]; isolated enzyme dpp iv, pH 7.8, incubation with DPP IV, 2 h, read-out: % Intact peptide remaining after time (h)
  remaining at 2 h, 1 mmol/l: 100%
[3]; isolated enzyme dpp iv, pH 7.8, incubation with DPP IV, 4 h, read-out: % Intact peptide remaining after time (h)
  remaining at 4 h, 1 mmol/l: 100%
[3]; isolated enzyme dpp iv, pH 7.8, incubation with DPP IV, 8 h, read-out: % Intact peptide remaining after time (h)
  remaining at 8 h, 1 mmol/l: 100%
[3]; isolated enzyme dpp iv, pH 7.8, incubation with DPP IV, 24 h, read-out: % Intact peptide remaining after time (h)
  remaining at 24 h, 1 mmol/l: 100%
[4]; 0 h
  % Intact peptide remaining after incubations with human plasma: 100%
[4]; 24 hours in the presence of DPA
  effect of DPA on plasma degradation of the peptide: complete abolition of degradation
[4]; 24 hours in the presence of DPA (diprotin A)
  % Intact peptide remaining after incubations with human plasma: 100%
[4]; Example 2, 4 hours incubation
  degradation by human plasma: did not result in the formation of any detectable degradation fragments
[4]; human, plasma, pH 7.8, 2 h, read-out: % Intact peptide remaining after incubations with human plasma
  remaining at 2 h, 20 µg/ml: 100%
[4]; human, plasma, pH 7.8, 4 h, read-out: % Intact peptide remaining after incubations with human plasma
  remaining at 4 h, 20 µg/ml: 100%
[4]; human, plasma, pH 7.8, 8 h, read-out: % Intact peptide remaining after incubations with human plasma
  remaining at 8 h, 20 µg/ml: 100%
[4]; human, plasma, pH 7.8, 24 h, read-out: % Intact peptide remaining after incubations with human plasma
  remaining at 24 h, 20 µg/ml: 100%
[5]; 5.6 and 16.7 mM glucose, 10^-13 to 10^-8 M peptide
  insulin secretion from BRIN-BD11 cells: considerably greater insulinotropic response compared with native peptide
[5]; glucose-responsive clonal B-cells
  insulin-releasing potency relative to GIP: several orders of magnitude greater than GIP

## (Trp^3)GIP: Glu^3-substituted form of GIP (tryptophan at position 3) (YAWGTFISDYSIAMDKIHQQDFVNWLLAQKGKKNDWKHNITQ)
[1]
  inhibition of GIP-stimulated insulin secretion: inhibited in a dose-dependent fashion

## (Tyr^3)GIP: Glu^3-substituted form of GIP (tyrosine at position 3) (YAYGTFISDYSIAMDKIHQQDFVNWLLAQKGKKNDWKHNITQ)
[1]
  inhibition of GIP-stimulated insulin secretion: inhibited in a dose-dependent fashion
